We go through 1 substance from patent publication US11220527B2, “Peptides derived from the propeptide NTSR3 and their use in the treatment of depression” (CENTRE NATIONAL DE LA RECHERCHE SCIENTIFIQUE, priority 2016, dated 2022).

The assay has as its target T1, TREK-1 channel (Homo sapiens, UniProt O95069).
T1 sequence (O95069 1-426): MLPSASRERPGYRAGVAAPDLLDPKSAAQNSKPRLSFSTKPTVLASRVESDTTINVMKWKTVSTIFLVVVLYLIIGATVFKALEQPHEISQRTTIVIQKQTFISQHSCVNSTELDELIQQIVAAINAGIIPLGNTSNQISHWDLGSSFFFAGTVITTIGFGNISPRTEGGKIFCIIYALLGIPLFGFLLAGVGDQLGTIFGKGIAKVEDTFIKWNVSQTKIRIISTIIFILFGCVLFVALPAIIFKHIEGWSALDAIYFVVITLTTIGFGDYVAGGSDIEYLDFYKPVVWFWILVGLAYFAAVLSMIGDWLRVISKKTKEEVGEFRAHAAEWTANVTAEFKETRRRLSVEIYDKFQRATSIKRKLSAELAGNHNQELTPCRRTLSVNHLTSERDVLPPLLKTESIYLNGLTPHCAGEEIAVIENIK
Description: Whole-cell patch clamp of TREK-1 channel activity in hTREK-1/HEK293 cells. Format: cell-based. Details: expressed in transfected cells. The following applies: dose-response measured at 0 mV, sigmoidal fit, FIG. 2; read-out: half-effect concentration (IC50) of TREK-1 channel activity inhibition. The procedure:
All experiments measuring the effect of spadin analogs and spadin were performed on ßTC3 or LNCaP or HEK293 cells stably transfected with the TREK-1 channel, hTREK-1/HEK293. The hTREK-1/HEK293 cell line was prepared in the laboratory. These cells also express a reporter gene: E-Green Fluorescent Protein (EGFP) enabling their visualization.
These cells were seeded at a density of 20,000 cells/dish of 35 mm diameter, 24 to 72 hours before being used.
The HEK293 cells were cultured in DMEM medium (Gibco)/10% fetal calf serum (FCS, ICN)/1% streptomycin+penicillin mixture (Gibco)/1% glutamax (Gibco)/0.5 mg/mL of G418 (Sigma) at 37° C. in the presence of 5% CO2.
The LNCaP cells were cultured in DMEM medium (Gibco)/10% fetal calf serum (FCS, ICN)/1% streptomycin+penicillin mixture (Gibco)/1% glutamax (Gibco)/at 37° C. in the presence of 5% CO2. […] From day 2 to day 4, the cells were measured by electrophysiological methods.
All measurements were made at room temperature, i.e. at 21-22° C. The hTREK-1/HEK293 cells were identified by the fluorescence emitted by EGFP after excitation at 480 nm. […]
The cell culture medium was replaced with a solution 150 mM NaCl, 5 mM KCl, 3 mM MgCl2, 1 mM CaCl2, 10 mM HEPES/NaOH pH 7.4 containing 10 mM tetraethylammonium chloride, 3 mM 4-aminopyridine. […] The resting potential of the membrane of the measured cell was set at −80 mV. […]
A general note: In patch-clamp work, channel activity is measured electrically.

Where no end group is shown, it is not given here.

As for AVSWGLR [G/A-PE(22-28), AVSWGLR], the IC50 came to 0.12 nM.
